Results reported in paper PMC8595862 (Environmental toxicology and pharmacology, 2021).
Structures can show the parent of a compound that is named as a salt.

Assays:
[1] = human cohort exposed to PCBs; calculated; ref Quinete et al., 2017; cited from earlier work
[2] = tested on: human hepatic microsomal sulfatase; experiment: Human hepatic microsomal sulfatase assay; type: in vitro ADME; details: relative to DHEA sulfate
[3] = rats, 0.6 mg/kg intravenous injection; ref Grimm et al., 2015a; cited from earlier work

Structure (SMILES): Oc1ccc(-c2ccc(Cl)cc2Cl)cc1Cl [4’-OH-PCB 25, 2,3’,4-trichloro-4’-hydroxybiphenyl]
- Plasma half-life [1]: 6.46 years

Structure (SMILES): O=S(=O)(O)Oc1ccc(-c2ccc(Cl)c(Cl)c2)cc1 [4’-PCB 12 Sulfate, 3,4-dichloro-4’-biphenylsulfate]
- Catalytic efficiency compared with DHEA sulfate [2]: the same as DHEA sulfate

Structure (SMILES): Clc1ccc(-c2ccc(Cl)cc2Cl)cc1 [PCB 28, 2,4,4’-trichlorobiphenyl]
- Plasma half-life [1]: 4.32 years

Structure (SMILES): O=S(=O)(O)Oc1cc(Cl)c(-c2cc(Cl)ccc2Cl)cc1Cl [4-PCB 52 Sulfate, 2,2’,5,5’-tetrachloro-4-biphenylsulfate]
- Catalytic efficiency compared with DHEA sulfate [2]: over 20 times

Structure (SMILES): O=S(=O)(O)Oc1ccc(-c2cccc(Cl)c2)cc1Cl [4-PCB 11 Sulfate, 3,3’-dichloro-4-biphenylsulfate]
- Tissue uptake, metabolism and urinary excretion [3]: taken up by tissues and further metabolized, with only a small percentage excreted in the urine
